Measurements reported in patent US20260207569A1, “LPA1 ANTAGONISTS FOR TREATING INTERSTITIAL LUNG DISEASE” (Bristol-Myers Squibb Company, priority 2022, published 2026).

Tests used:
Format in all cases: in vivo, human
participants with PPF = experiment: Phase 2 PPF cohort efficacy: rate of FVC decline (% predicted) / FVC to Week 26; settings: for Mean observed change from baseline in ppFVC and FVC vs placebo: to week 26
Description: A total of 123 participants with PPF were randomized. Participants (age ≥21 years) were randomized (1:1:1) to receive 30 mg or 60 mg Compound A or PBO twice daily for 26 weeks. […] Immunosuppressive medications (mycophenolate mofetil, mycophenolic acid, azathioprine and/or tacrolimus) were permitted only if dosing is stable for ≥6 months prior to screening. If receiving antifibrotic agents pirfenidone or nintedanib, patients had to receive a stable dosage for ≥3 months prior to screening and during the screening period; if not receiving pirfenidone or nintedanib, patients had to be naive to both drugs or not have received either 4 weeks prior to Day 1. A total of 47 (38.2%) subjects were receiving antifibrotic treatment (with or without immunosuppression therapy). Of those subjects, 34 were being treated with nintedanib and 13 with pirfenidone. Participants were stratified by usual interstitial pneumonia (UIP) pattern (presence versus absence) and background therapy (antifibrotics +/−ILD-targeted immunosuppression versus ILD-targeted immunosuppression alone versus none). UIP pattern was present in 52% of subjects and unclassifiable ILD was he most common disease categorization.
The study was not powered to detect statistical significance (no formal testing). No target effect size was defined in the study design. There were two estimand approaches for analysis: • Treatment Policy: Effect of treatment with dose reduction as part of treatment regimen. • While-On Treatment: Effect of treatment without dose reduction.
The main efficacy endpoint, rate of FVC decline (in % of predicted) from baseline to wk-26 in the PPF cohort, was estimated using a linear mixed-effects model utilizing all FVC timepoints. It was analyzed under a primary estimand (utilizing all data, treatment policy strategy), and under supplementary estimand (utilizing all data up to the point of dose reduction, while-on-treatment strategy). Analysis was performed in the overall population as well as in sub-groups by 1) background anti-fibrotic treatment or not 2) UIP radiographic pattern (presence or not). The mean baseline ppFVC was 66.7% for the PPF cohort.

[1] = Phase 1 Part C MAD, blood pressure, healthy Japanese participants
Description: (§1) The study was performed in 3 parts in 112 healthy male and female participants, including 24 Japanese participants. Female participants were to be not of childbearing potential. The present study was designed to evaluate the safety and tolerability, PK, and exploratory PD of an oral suspension of Compound A. Parts A and B (Cohort B1 only) enrolled healthy participants and was conducted at a site in The Netherlands and Part B (Cohort B2 to B5) enrolled healthy non-Japanese participants and was conducted at a site in the United Kingdom (UK). Part C enrolled healthy Japanese participants and was conducted at the same site in the UK.
Part C was a MAD study in 3 sequential dose escalation cohorts (30 mg BID, 60 mg BID, and 90 mg BID) of 8 healthy Japanese participants (6 active+2 placebo) each. Eligible participants in Cohorts C1 to C3 received study drug (Compound A or placebo) administered orally for 14 days.
(§2) Physical examinations, vital sign measurements (including orthostasis testing in Cohort A6, Cohort B3 to B5, and C1 to C3 at selected time points), 12-lead electrocardiogram (ECG), and clinical laboratory evaluations were performed at selected times throughout the study. In addition, Holter monitoring was performed for the first 24 hours post dose on Day 1 in Part A (not in FE/pH cohort), and also for the first 24 hours post dose on Day 1 and Day 14 in Parts B and C. Participants were closely monitored for adverse events (AEs). Blood samples were collected for up to 14 days (follow-up visit) after (last) study drug administration for PK analysis. In addition, blood and urine were collected for exploratory biomarker assessments and for biobanking of samples for potential analyses. Urine was collected for potential PK analysis for up to 96 hours after a single dose of Compound A or placebo was administered in the SAD part, and for up to 24 hours after the first (morning) dose of study drug on Day 1 and for up to 24 hours after the last (morning) dose of study drug on Day 14 in the MAD parts.

[2] = Phase 1 Part A single ascending dose (SAD) and food effect/pH cohort, blood pressure and safety, healthy participants; settings: for Time of maximum mean DBP reduction / Time of maximum mean SBP reduction: within 12 h post dose
Description: as §1
Part A was an SAD study in a planned number of 6 sequential dose escalation cohorts (3, 10, 30, 100, 150, or 250 mg) of 8 healthy participants (6 active+2 placebo) each, under fasted conditions. Eligible participants in Part A (excluding those in Cohort A7 [food effect (FE)/pH cohort]) received a single administration of study drug (Compound A or placebo) under fasted conditions. In Cohort A1 to Cohort A6, sentinel dosing was employed (1 active+1 placebo, followed after 48 hours by the remaining participants of the cohort [5 active+1 placebo]). […] In addition to the 6 ascending dose cohorts, a cohort of 6 healthy participants (Cohort A7; 6 active, 100 mg Compound A) was included to assess the effect of food and pH on the bioavailability of Compound A in a 3-period, open-label, fixed-sequence, crossover design (FE/pH cohort).
as §2

[3] = 100 mg fasted + famotidine (A7)

Question: What does the source list for `CCCN(C)C(=O)OCc1c(-c2ccc(O[C@H]3CCC[C@H](C(=O)O)C3)c(C)n2)nnn1C` [Compound A, (1S,3S)-3-((2-methyl-6-(1-methyl-5-(((methyl(propyl)carbamoyl)-oxy)methyl)-1H-1,2,3-triazol-4-yl)pyridin-3-yl)oxy)cyclohexane-1-carboxylic acid]?
Answer: Treatment differences by UIP pattern (participants with PPF; PPF cohort): treatment differences were seen in the PPF cohort independent of UIP pattern presence or absence; Treatment differences in rates of change in ppFVC by background antifibrotic use (participants with PPF; PPF cohort): consistent with or without background antifibrotic use; Dose response of efficacy (participants with PPF; PPF cohort, 30 mg and 60 mg BID): Clear dose response; Consistency of efficacy across sub-groups (participants with PPF; PPF cohort, background antifibrotics, UIP pattern): Efficacy consistent in all sub-groups; Rate of decline in FVC (% Predicted), slope (participants with PPF; PPF, 30 mg BID, UIP absent, supplementary estimand): −2.24 % Predicted; Rate of decline in FVC (% Predicted), slope (participants with PPF; PPF, 30 mg BID, UIP present, primary estimand): −3.07 % Predicted; Rate of decline in FVC (% Predicted), slope (participants with PPF; PPF, 30 mg BID, not receiving antifibrotic treatment, supplementary estimand): −2.83 % Predicted; Rate of decline in FVC (% Predicted), slope (participants with PPF; PPF, 30 mg BID, overall population, primary estimand (treatment policy), 26 weeks): −2.7 % Predicted; Rate of decline in FVC (% Predicted), slope (participants with PPF; PPF, 30 mg BID, receiving antifibrotic treatment, supplementary estimand): −1.8 % Predicted; Mean observed change from baseline in ppFVC and FVC vs placebo (participants with PPF; PPF, 30 mg BID): shows more significant improvement after week 20; Rate of decline in FVC (% Predicted), slope (participants with PPF; PPF, 60 mg BID, UIP absent, supplementary estimand): −0.7 % Predicted; Rate of decline in FVC (% Predicted), slope (participants with PPF; PPF, 60 mg BID, UIP present, primary estimand): −1.46 % Predicted; Rate of decline in FVC (% Predicted), slope (participants with PPF; PPF, 60 mg BID, not receiving antifibrotic treatment, supplementary estimand): −1.56 % Predicted; Rate of decline in FVC (% Predicted), slope (participants with PPF; PPF, 60 mg BID, overall population, supplementary estimand (while on treatment), 26 weeks): −1.3 % Predicted; Rate of decline in FVC (% Predicted), slope (participants with PPF; PPF, 60 mg BID, receiving antifibrotic treatment, supplementary estimand): −1.1 % Predicted; Mean observed change from baseline in ppFVC and FVC vs placebo (participants with PPF; PPF, 60 mg BID): maintains the improvement over placebo through the end of week 26; Slope difference, 60 mg − placebo (participants with PPF; PPF, UIP absent, supplementary estimand): 3.8 % Predicted; Slope difference, 30 mg − placebo (participants with PPF; PPF, UIP present, primary estimand): 0.88 % Predicted; Slope difference (S.E.), 60 mg − placebo (participants with PPF; PPF, overall population, primary estimand (treatment policy)): 3.2 % Predicted; Slope difference (S.E.), 60 mg − placebo (participants with PPF; PPF, overall population, supplementary estimand (while on treatment)): 2.9 % Predicted; Maximum of mean (±SD) reduction in SBP from baseline ([1]; Japanese MAD 30 mg BID (C1)): 15.0 ± 6.84 mmHg; Time of maximum mean SBP reduction ([1]; Japanese MAD 30 mg BID (C1)): 1-4 Day-h; Time of maximum mean DBP reduction ([1]; Japanese MAD 90 mg BID (C2)): 1-6 Day-h; Time of maximum mean SBP reduction ([1]; Japanese MAD 90 mg BID (C2)): 1-6 Day-h; Reductions in mean BP ([1]; Japanese MAD cohorts): no clear Compound A dose-dependent BP reduction trend; Time of maximum mean DBP reduction ([2]; 100 mg fasted (A7)): 5 h; Time of maximum mean SBP reduction ([2]; 100 mg fasted (A7)): 8 h; Time of maximum mean DBP reduction [2, 3]: 6 h; Time of maximum mean SBP reduction [2, 3]: 6 h; Time of maximum mean DBP reduction ([2]; 100 mg fed (A7)): 5 h; Time of maximum mean SBP reduction ([2]; 100 mg fed (A7)): 6 h; Time of maximum mean DBP reduction ([2]; SAD 10 mg (A2)): 6 h; Time of maximum mean SBP reduction ([2]; SAD 10 mg (A2)): 8 h; Time of maximum mean DBP reduction ([2]; SAD 30 mg (A3)): 5 h; Time of maximum mean SBP reduction ([2]; SAD 30 mg (A3)): 4 h; Time of maximum mean DBP reduction ([2]; SAD 100 mg (A4)): 5 h; Time of maximum mean SBP reduction ([2]; SAD 100 mg (A4)): 2 h; Time of maximum mean DBP reduction ([2]; SAD 150 mg (A5)): 6 h; Time of maximum mean SBP reduction ([2]; SAD 150 mg (A5)): 6 h; Effect on SBP and DBP ([2]; SAD cohorts): decreased SBP and DBP dose dependently, reversibly, and mostly asymptomatically with minimal effect on heart rate; Safety and tolerability ([2]; single and multiple dose oral administration, healthy participants): generally safe and well tolerated; Time after dosing of maximum BP reduction ([2]; single and multiple dose, healthy participants): 4 to 8 h
